Assay results reported in patent EP1499590B1, “Piperidine derivatives as potassium channel blockers” (AstraZeneca AB, priority 2001, dated 2003).
Read-outs that look alike come from different tables or passages of the source.

Target: T1, human ether-a-go-go-related-gene (hERG)-encoded potassium channel (Homo sapiens, UniProt Q12809)
T1 construct: expressed in transfected cells; host or cells: Human embryonic kidney (HEK) cells, grown under Geneticin G418 selection
Test: hERG-encoded potassium channel inhibition test (whole-cell patch clamp, tail current)
Assay type: cell-based

[1] = HEK cells expressing the hERG-encoded channel, tail current after step from +40 mV to -50 mV, room temperature (~20 °C), read-out: IC50

T1 sequence (Q12809 whole entry): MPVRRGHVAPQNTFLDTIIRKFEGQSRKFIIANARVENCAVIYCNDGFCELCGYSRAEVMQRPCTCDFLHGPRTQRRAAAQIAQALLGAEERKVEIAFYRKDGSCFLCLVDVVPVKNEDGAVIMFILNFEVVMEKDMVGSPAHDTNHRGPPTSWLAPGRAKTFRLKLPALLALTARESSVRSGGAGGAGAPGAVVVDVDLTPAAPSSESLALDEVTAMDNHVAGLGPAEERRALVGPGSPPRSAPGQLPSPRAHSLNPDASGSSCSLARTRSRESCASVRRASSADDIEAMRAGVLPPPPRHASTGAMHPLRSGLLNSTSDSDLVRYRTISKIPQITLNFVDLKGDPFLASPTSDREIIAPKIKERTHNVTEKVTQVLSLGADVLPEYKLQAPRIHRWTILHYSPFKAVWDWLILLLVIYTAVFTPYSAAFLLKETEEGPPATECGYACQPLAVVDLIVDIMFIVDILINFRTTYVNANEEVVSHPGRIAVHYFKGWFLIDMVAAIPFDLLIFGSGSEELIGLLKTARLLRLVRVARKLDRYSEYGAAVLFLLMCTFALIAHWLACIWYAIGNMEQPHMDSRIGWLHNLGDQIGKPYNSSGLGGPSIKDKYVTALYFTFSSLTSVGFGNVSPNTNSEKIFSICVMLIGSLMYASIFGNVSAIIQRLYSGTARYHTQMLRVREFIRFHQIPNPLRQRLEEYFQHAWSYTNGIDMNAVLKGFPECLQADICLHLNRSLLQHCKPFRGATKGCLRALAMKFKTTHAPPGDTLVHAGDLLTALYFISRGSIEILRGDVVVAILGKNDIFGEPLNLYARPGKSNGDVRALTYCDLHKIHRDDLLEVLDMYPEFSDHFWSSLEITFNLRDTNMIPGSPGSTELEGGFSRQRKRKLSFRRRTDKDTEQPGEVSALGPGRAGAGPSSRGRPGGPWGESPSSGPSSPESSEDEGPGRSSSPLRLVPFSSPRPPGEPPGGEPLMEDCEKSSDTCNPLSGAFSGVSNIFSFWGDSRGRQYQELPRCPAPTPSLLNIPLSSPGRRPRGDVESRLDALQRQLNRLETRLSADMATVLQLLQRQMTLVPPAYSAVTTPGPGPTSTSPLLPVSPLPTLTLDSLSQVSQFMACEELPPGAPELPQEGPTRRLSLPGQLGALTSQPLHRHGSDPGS
Protocol: This assay determines the ability of a test compound to inhibit the tail current flowing through the human ether-a-go-go-related-gene (hERG)-encoded potassium channel.
One or two days before each experiment, the cells were detached from the tissue culture flasks with Accutase (TCS Biologicals) using standard tissue culture methods. They were then put onto glass coverslips resting in wells of a 12 well plate and covered with 2 ml of the growing media.
For each cell recorded, a glass coverslip containing the cells was placed at the bottom of a Perspex chamber containing bath solution (see below) at room temperature (~20 °C). This chamber was fixed to the stage of an inverted, phase-contrast microscope. Immediately after placing the coverslip in the chamber, bath solution was perfused into the chamber from a gravity-fed reservoir for 2 minutes at a rate of ~ 2 ml/min. After this time, perfusion was stopped.
A patch pipette made from borosilicate glass tubing (GC120F, Harvard Apparatus) using a P-97 micropipette puller (Sutter Instrument Co.) was filled with pipette solution (see hereinafter). The pipette was connected to the headstage of the patch clamp amplifier (Axopatch 200B, Axon Instruments) via a silver/silver chloride wire. The headstage ground was connected to the earth electrode. This consisted of a silver/silver chloride wire embedded in 3% agar made up with 0.85% sodium chloride.
The cell was recorded in the whole cell configuration of the patch clamp technique. Following "break-in", which was done at a holding potential of -80 mV (set by the amplifier), and appropriate adjustment of series resistance and capacitance controls, electrophysiology software (Clampex, Axon Instruments) was used to set a holding potential (-80 mV) and to deliver a voltage protocol. This protocol was applied every 15 seconds and consisted of a 1 s step to +40 mV followed by a I s step to -50 mV. The current response to each imposed voltage protocol was low pass filtered by the amplifier at 1 kHz. The filtered signal was then acquired, on line, by digitising this analogue signal from the amplifier with an analogue to digital converter. […]
The amplitude of the hERG-encoded potassium channel tail current following the step from +40 mV to -50 mV was recorded on-line by Clampex software (Axon Instruments). […]
The effect of each concentration of test compound was quantified by expressing the tail current amplitude in the presence of a given concentration of test compound as a percentage of that in the presence of vehicle.
Test compound potency (IC50) was determined by fitting the percentage inhibition values making up the concentration-effect to a four parameter Hill equation using a standard data-fitting package.

Work on `CC(=O)Nc1ccccc1OCC(O)CNC1CCN(Cc2ccc(Cl)cc2)CC1` (stereo not shown) [Comparison A] yielded an IC50 [1] of 300 nM.
`COc1ccc(NC(C)=O)c(OC[C@@](C)(O)CNC2CCN(Cc3ccc(Cl)cc3)CC2)c1` [Comparison B] showed an IC50 [1] of 300 nM.
For `CC(=O)Nc1ccc(Cl)cc1OCC(O)CNC1CCN(Cc2ccc(Cl)cc2)CC1` (stereo not shown) [Comparison C], the IC50 [1] was 100 nM.
In the case of `CC(=O)Nc1ccc(O)cc1OC[C@@](C)(O)CNC1CCN(Cc2ccc(Cl)cc2)CC1` [Example 1, 4-({(2S)-3-[2-(acetylamino)-5-hydroxyphenoxy]-2-hydroxy-2-methylpropyl}ammonio)-1-(4-chlorobenzyl)piperidinium di(2,2,2-trifluoroacetate)], the IC50 is reported as 31600 nM.
